In PubChem BioAssay AID588689 (Southern Research Specialized Biocontainment Screening …, 2011):

Biological target: Genome polyprotein (Dengue virus type 2 (strain 16681-PDK53)) (UniProt P29991)
Experiment: flavivirus cap methylation enzyme inhibition – biochemical, confirmation dose response, primary screen (AID 588689)
Conditions: Dengue-2 NS5 methyltransferase capping enzyme assay

Chain of Genome polyprotein (Dengue virus type 2 (strain 16681-PDK53)) (P29991 whole entry, looked up): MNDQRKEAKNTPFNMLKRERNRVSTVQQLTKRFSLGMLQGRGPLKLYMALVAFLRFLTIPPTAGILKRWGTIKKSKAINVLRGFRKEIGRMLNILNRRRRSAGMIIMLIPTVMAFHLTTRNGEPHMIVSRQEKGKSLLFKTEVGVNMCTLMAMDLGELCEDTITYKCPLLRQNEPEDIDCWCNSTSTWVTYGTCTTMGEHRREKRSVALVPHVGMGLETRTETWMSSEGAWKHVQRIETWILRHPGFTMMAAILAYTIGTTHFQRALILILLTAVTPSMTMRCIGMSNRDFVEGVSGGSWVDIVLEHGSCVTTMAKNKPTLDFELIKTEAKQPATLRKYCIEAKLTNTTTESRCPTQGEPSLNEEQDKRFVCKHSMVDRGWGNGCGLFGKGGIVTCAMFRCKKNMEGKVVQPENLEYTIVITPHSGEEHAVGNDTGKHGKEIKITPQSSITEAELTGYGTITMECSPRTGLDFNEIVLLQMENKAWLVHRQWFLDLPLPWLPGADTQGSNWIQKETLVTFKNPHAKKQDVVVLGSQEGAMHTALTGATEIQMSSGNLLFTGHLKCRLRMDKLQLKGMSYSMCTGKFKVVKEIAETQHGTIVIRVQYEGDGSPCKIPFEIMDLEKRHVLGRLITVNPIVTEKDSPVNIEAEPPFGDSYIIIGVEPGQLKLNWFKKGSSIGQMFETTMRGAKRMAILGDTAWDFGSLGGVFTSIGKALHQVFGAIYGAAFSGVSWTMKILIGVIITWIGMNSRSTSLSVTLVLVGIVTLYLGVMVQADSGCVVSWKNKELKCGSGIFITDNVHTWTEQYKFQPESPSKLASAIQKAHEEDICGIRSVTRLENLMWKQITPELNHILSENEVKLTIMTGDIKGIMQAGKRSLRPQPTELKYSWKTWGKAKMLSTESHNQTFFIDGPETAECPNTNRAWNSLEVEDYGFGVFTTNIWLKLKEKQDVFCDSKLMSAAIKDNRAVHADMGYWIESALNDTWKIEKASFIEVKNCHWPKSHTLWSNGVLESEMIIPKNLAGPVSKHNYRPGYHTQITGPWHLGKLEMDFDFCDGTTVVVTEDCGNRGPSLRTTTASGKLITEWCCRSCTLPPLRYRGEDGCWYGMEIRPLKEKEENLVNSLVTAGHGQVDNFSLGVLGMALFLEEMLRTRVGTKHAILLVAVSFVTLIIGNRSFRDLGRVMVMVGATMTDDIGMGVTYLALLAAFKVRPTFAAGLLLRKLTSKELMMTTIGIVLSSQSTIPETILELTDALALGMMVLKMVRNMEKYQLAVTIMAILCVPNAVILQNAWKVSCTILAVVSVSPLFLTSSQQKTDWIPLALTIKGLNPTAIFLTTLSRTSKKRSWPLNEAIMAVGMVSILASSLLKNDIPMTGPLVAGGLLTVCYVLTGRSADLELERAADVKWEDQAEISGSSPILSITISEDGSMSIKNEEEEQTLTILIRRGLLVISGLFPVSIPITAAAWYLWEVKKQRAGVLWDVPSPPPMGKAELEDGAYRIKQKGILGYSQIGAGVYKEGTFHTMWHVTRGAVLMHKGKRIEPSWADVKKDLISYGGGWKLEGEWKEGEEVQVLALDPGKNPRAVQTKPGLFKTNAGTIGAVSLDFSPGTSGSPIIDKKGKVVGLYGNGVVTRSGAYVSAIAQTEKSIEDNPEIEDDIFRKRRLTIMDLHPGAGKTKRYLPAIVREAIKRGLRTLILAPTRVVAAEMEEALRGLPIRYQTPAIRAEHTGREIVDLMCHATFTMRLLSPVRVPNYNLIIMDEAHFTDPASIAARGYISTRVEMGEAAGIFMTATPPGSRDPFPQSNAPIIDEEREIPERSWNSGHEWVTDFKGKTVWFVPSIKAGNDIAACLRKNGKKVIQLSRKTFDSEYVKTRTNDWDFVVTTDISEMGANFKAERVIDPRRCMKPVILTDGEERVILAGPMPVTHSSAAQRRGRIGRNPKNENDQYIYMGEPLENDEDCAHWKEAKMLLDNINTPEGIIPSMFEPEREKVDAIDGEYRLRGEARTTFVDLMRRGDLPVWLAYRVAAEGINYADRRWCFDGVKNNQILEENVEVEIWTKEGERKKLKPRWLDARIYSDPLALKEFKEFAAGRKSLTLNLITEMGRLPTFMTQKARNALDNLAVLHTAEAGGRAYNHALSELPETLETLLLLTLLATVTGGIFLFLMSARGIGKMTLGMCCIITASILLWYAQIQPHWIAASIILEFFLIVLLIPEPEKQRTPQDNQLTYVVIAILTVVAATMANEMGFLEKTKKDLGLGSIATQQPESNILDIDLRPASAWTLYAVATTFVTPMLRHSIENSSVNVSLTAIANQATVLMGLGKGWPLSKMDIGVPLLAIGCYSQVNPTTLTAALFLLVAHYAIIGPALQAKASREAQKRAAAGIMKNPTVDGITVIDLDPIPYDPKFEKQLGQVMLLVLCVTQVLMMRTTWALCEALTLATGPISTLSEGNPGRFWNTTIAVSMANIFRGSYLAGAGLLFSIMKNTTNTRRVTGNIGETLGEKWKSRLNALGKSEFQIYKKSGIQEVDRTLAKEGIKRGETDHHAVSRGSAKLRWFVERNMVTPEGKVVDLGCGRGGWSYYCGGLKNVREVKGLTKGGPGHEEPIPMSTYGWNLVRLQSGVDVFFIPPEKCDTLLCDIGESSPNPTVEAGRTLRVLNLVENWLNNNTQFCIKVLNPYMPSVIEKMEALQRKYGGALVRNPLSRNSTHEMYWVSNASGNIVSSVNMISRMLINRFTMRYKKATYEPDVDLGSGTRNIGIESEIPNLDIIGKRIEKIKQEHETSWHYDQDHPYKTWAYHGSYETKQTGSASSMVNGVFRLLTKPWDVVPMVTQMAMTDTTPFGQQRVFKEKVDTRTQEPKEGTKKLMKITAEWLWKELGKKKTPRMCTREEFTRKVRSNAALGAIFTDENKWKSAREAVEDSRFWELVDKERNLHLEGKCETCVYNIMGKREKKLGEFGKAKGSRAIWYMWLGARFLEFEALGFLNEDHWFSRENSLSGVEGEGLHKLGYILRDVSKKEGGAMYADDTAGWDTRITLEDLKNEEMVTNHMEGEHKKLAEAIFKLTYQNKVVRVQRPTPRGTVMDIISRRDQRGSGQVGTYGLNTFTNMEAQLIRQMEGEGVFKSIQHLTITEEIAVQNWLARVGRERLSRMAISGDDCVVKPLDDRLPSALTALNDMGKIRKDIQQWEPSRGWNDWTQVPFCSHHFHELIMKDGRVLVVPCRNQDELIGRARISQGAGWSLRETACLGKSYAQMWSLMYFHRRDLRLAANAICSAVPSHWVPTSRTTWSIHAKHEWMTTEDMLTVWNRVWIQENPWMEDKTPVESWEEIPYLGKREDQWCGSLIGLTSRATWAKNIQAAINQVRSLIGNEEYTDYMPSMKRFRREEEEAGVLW

SMILES	IC50 [µM]
C=Cc1c(C)c2cc3[nH]c(cc4nc(cc5nc(cc1[nH]2)C(C)=C5CCC(=O)O)C(CCC(=O)O)=C4C)c(C)c3C=C	34.6
CCCCC1(C)OC(=O)C(=Cc2ccc(-c3ccc(Cl)c(C(=O)O)c3)o2)C(=O)O1 (configuration not stated)	14
